Assay results taken from PMC10067601, “Identification of a peptide ligand for human ALDH3A1 through peptide phage display: Prediction and characterization of protein interaction sites and inhibition of ALDH3A1 enzymatic activity” (Frontiers in Molecular Biosciences, 2023).

Target: T1, human recombinant ALDH3A1 (Homo sapiens, UniProt P30838)
T1 construct: 6xHis (C); made in house; host or cells: E. coli, with chaperone co-expression (pG-KJE8 plasmid)
T1 sequence (P30838 1-453): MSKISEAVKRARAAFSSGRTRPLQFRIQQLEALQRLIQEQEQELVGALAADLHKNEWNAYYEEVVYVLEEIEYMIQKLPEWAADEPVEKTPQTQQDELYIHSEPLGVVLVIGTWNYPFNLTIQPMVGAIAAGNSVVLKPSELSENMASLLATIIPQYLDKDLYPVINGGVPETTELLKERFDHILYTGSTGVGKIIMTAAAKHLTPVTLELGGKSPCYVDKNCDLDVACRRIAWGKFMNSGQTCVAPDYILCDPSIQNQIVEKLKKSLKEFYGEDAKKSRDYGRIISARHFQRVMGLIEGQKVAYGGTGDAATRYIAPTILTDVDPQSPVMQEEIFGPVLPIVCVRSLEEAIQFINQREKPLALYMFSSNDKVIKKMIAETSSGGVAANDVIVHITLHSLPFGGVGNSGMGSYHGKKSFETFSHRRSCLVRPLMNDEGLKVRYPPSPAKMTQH
Test: ALDH3A1 enzymatic assay, benzaldehyde oxidation
Format: biochemical
Settings: for Enzymatic activity, % of control (Mean%): 40 μM CB29; for Enzymatic activity, % of control (Mean%) / Enzymatic Activity, AVERAGE of triplicates: mean of n = 3
Protocol: The ability of ALDH3A1 to oxidize benzaldehyde in the presence of P1 was estimated by monitoring the production of NADH as described earlier with minor modifications ([Voulgaridou et al., 2013]). Human recombinant ALDH3A1 was combined with P1 and diluted in Milli-Q water, at 1:1,000. The final reaction was placed in a 0.5 mL quartz cuvette containing 50 mM Tris-HCl pH 8.5, 50 mM 2-Mercaptoethanol, 1.5 mM […], 20 nM ALDH3A1, 20 μM P1, and 1 mM Benzaldehyde. The reaction was initiated by the addition of the benzaldehyde substrate and was monitored at 340 nm for 5 min using a spectrophotometer (Libra S22, Biochrom Ltd, Cambridge, United Kingdom). In the case of CB29, the final reaction contained 40 μM CB29. Enzymatic activity was calculated as dOD/dT∗molarextinctioncoeiffcient∗pathcorrection∗enzyme^′sconcentrationinfinalreaction where, dT = minutes, molar extinction coefficient = 6220 M^-1/cm, path correction = 1 cm.
All experiments were conducted in triplicates and presented as % of the control’s enzymatic activity. As a control, the final reaction contained the respective Milli-Q water volume without P1 or CB29.
At least three independent experiments were performed for each condition tested. The values are expressed as the mean ± standard deviation (SD). Statistical analysis was performed with Graph Pad Prism software (version 9.4.1) (Graph Pad Inc., La Jolla, CA, United States). For all assays, statistical differences between groups were evaluated either by Student’s t-test or ANOVA, for multiple comparisons, followed by Dunnett’s or Tukey’s test. A level of p < 0.01 was considered statistically significant.

[1] = 20 μM P1 (n = 4) or 40 μM CB29 (n = 3)

- Enzymatic activity, % of control, AVERAGE of experiments (20 μM P1 (4 experiments) or 40 μM CB29 (3 experiments), 1 mM benzaldehyde, 20 nM ALDH3A1, pH 8.5, 340 nm, 5 min): 52.9548%
- 25% Percentile, % of control activity [1]: 47.24
- 75% Percentile, % of control activity [1]: 56.68
- Lower 95% CI of mean, % of control activity [1]: 40.48
- Maximum, % of control activity [1]: 56.68
- Mean, % of control activity [1]: 52.95
- Median, % of control activity [1]: 54.95
- Minimum, % of control activity [1]: 47.24
- Upper 95% CI of mean, % of control activity [1]: 65.43
- Enzymatic activity, % of control (Mean%) (CB29 Exp1, 1 mM benzaldehyde, 20 nM ALDH3A1, pH 8.5, 340 nm): 56.6779%
- Enzymatic activity, % of control (Mean%) (CB29 Exp2, 1 mM benzaldehyde, 20 nM ALDH3A1, pH 8.5, 340 nm): 54.9455%
- Enzymatic activity, % of control (Mean%) (CB29 Exp3, 1 mM benzaldehyde, 20 nM ALDH3A1, pH 8.5, 340 nm): 47.241%
- Enzymatic Activity, AVERAGE of triplicates (CB29 Exp1, 40 μM): 7.722 µmol/min/mg
- Enzymatic Activity, AVERAGE of triplicates (CB29 Exp2, 40 μM): 6.9085 µmol/min/mg
- Enzymatic Activity, AVERAGE of triplicates (CB29 Exp3, 40 μM): 7.406 µmol/min/mg
- 95,00% CI of diff, control vs. compound (Dunnett's multiple comparisons, 20 μM P1 or 40 μM CB29): 37,23 to 56,86
- Mean Diff, control vs. compound (Dunnett's multiple comparisons, 20 μM P1 or 40 μM CB29, % of control activity): 47.05
Compound: CC(=O)Nc1ccc(Nc2ccc(S(C)(=O)=O)cc2[N+](=O)[O-])cc1 [CB29, reference compound]
